{"source": "patent US20260374809A1", "about": "“COMPOUNDS USEFUL FOR THE TREATMENT AND/OR CARE OF THE SKIN, HAIR, NAILS AND/OR MUCOUS MEMBRANES” (Lubrizol Advanced Materials, Inc., priority 2022, published 2026)", "tested_on": "Musclebind Like Protein 1 (MBNL1)", "test": "MBNL1 protein in human dermal fibroblasts (HDFa), immunofluorescence", "type": "cell-based", "details": "HDFa cells; for % Fold induction (FI) (MEAN ± SEM), MBNL1 intensity: 24 hours, basal control = 100; for % MME (MEAN ± SEM), comparative MBNL1 intensity with respect to electrical stimulation: MES = 100, control = 0", "method": "Musclebind Like Protein 1 (MBNL1) in Human Dermal Fibroblasts (HDF)\nThe aim of this study was to evaluate the increase of MBNL1 protein in human skin fibroblasts after electrical stimulation, mimicking a microcurrent-like treatment. Topical products able to increase MBNL1 protein amount in fibroblast cells, in a similar way to the microcurrent-like treatment, could induce the same antiaging benefits on the skin avoiding the side-effects of physical microcurrent treatment\nCells were seeded at 100.000 cells/well in 12-well plates over sterile glass slides and incubated at 37 °C, 5% CO2 for 48 hours. After that, electrical stimulation was performed. Glass slides were transferred to 6-well plates and were electro-stimulated (1.5V) for 1 hour using a C-dish device (IonOptix™) at room temperature. An identical 6-well plate with non-stimulated cells were incubated at room temperature for 1 hour. After electrostimulation, glass slides were transferred again to a 12-well plate and incubated at 37 °C, 5% CO2 for 24 hours. Three different replicates were used for each condition.\nCells were seeded at 8.000 cells/well in 96-well plates and incubated at 37 °C, 5% CO2 for 48 hours. After the incubation time, cells were treated with PEP-1 (H-Leu-Pro-Val-Thr-OH) at 0.01 mg/ml, 0.1 mg/ml and 0.5 mg/ml for 24 hours. Cells incubated with medium alone were used as a control. Three replicates were carried out for each condition.\nAfter 24 hours of incubation, cells were washed two times with phosphate buffered saline (PBS), fixed with 4% PFA (paraformaldehyde solution) for 15 minutes and washed again two times. After that, cells were permeabilized with 1% X-Triton solution for 15 minutes and blocked with 5% bovine serum albumin (BSA) solution for 1 hour. Cells were incubated with 1/20 dilution of primary antibody against MBNL1 protein (Sigma) in 5% BSA solution for 2 hours. After the incubation time, cells were washed and incubated with 1/200 dilution of secondary antibody (AlexFluor™ 488) in 5% BSA solution for 1 hour. Finally, cells were washed 3 times and stained with 4′,6-Diamidine-2′-phenylindole dihydrochloride (DAPI) mount solution for nuclei detection. MBNL1 protein quantification were measured as fluorescence intensity of MBNL1 normalized by the number of nuclei for each condition using a confocal microscope (Operetta® confocal microscope, PerkinElmer Inc) using Alexa 488 Green channel (Ex: 460-490 nm/Em: 500-550 nm). Results are expressed as an MBNL1 level that is relative to that of the control condition.\nAt least, three independent experiments were analyzed in this assay.\nResults were calculated using the following formula: […]\nFor comparative purposes, the effect of the peptide was compared with that of MES. The effect was calculated as follows: […]", "note": "Where a SMILES comes first, the peptide text is derived from it.", "data": [{"compound": "CC(C)C[C@H](N)C(=O)N1CCC[C@H]1C(=O)N[C@H](C(=O)N[C@H](C(=O)O)[C@@H](C)O)C(C)C", "note": "[PEP-1, H-Leu-Pro-Val-Thr-OH] (H-LPVT-OH)", "values": [{"measurement": "% Fold induction (FI) (MEAN ± SEM), MBNL1 intensity", "setting": "0.01 mg/ml", "value": "106.66 ± 2.65", "unit": "%"}, {"measurement": "% MME (MEAN ± SEM), comparative MBNL1 intensity with respect to electrical stimulation", "setting": "0.01 mg/ml", "value": "52.73 ± 2.65", "unit": "%"}, {"measurement": "% Fold induction (FI) (MEAN ± SEM), MBNL1 intensity", "setting": "0.1 mg/ml", "value": "107.67 ± 1.62", "unit": "%"}, {"measurement": "% MME (MEAN ± SEM), comparative MBNL1 intensity with respect to electrical stimulation", "setting": "0.1 mg/ml", "value": "60.73 ± 1.62", "unit": "%"}, {"measurement": "% Fold induction (FI) (MEAN ± SEM), MBNL1 intensity", "setting": "0.5 mg/ml", "value": "109.46 ± 2.68", "unit": "%"}, {"measurement": "% MME (MEAN ± SEM), comparative MBNL1 intensity with respect to electrical stimulation", "setting": "0.5 mg/ml", "value": "74.90 ± 2.68", "unit": "%"}]}]}
